A value given as a limit tells only on which side of the number the result lay.

The test system of the first data set is MYB. Description: Splicing RT-qPCR assay, MYB mRNA canonical junction (CJ) and alternative junction (AJ). It is filed as cell-based, human. Conditions: Homo sapiens, 24 h, decrease in CJ mRNA; A673 or K562 cells, 24 hours treatment, RT-qPCR; read-out: MYB CJ IC50. The gist of the method: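 Cells: A673 (DMEM/10% FBS) or K562 (IMDM/10% FBS). Dose: 11-pt 3-fold, top 10 uM final, ≤0.25% DMSO, 24 h, 37 °C. Readout: RT-qPCR of CJ/AJ exon junctions, ΔΔCt vs housekeeper and DMSO, RQ to % response.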
For orientation: Real-time PCR tracks product formation cycle by cycle.
As to `Fc1cc(-c2ccc(OC3CC4CC(F)(F)C(C3)N4)nn2)c2[nH]ncc2c1-c1cn[nH]c1` (stereo not shown) [Compound 313, 7-[6-({6,6-difluoro-8-azabicyclo[3.2.1]octan-3-yl}oxy)pyridazin-3-yl]-5-fluoro-4-(1H-pyrazol-4-yl)-1H-indazole], the IC50 lay within 100 to 1000 nM.

Still in this data set, the particulars now being: Homo sapiens, 24 h, increase in AJ mRNA; A673 or K562 cells, 24 hours treatment, RT-qPCR.
In turn, `Fc1cc(-c2ccc(OC3CC4CC(F)(F)C(C3)N4)nn2)c2[nH]ncc2c1-c1cn[nH]c1` (stereo not shown) [Compound 313, 7-[6-({6,6-difluoro-8-azabicyclo[3.2.1]octan-3-yl}oxy)pyridazin-3-yl]-5-fluoro-4-(1H-pyrazol-4-yl)-1H-indazole] registered an AC50 of 100 to 1000 nM.

The same data set, now with this note: Homo sapiens, RT-qPCR panel, canonical junction mRNA; compound concentration having 50% response in CJ decrease; read-out: MYB IC50 (decrease in CJ mRNA levels).
On to `Fc1cc(-c2ccc(OC3CC4CC(F)(F)C(C3)N4)nn2)c2[nH]ncc2c1-c1cn[nH]c1` (stereo not shown) [Compound 313, 7-[6-({6,6-difluoro-8-azabicyclo[3.2.1]octan-3-yl}oxy)pyridazin-3-yl]-5-fluoro-4-(1H-pyrazol-4-yl)-1H-indazole], for which the IC50 is 100 to 1000 nM.

`Cc1ncc(-c2ccc(-c3cnc(N(C)[C@@H]4C[C@H]5CCC[C@@H](C4)N5)nn3)c3scnc23)s1` [Compound 578]: the IC50 was in the range of 100 to 1000 nM.

Take `Cc1nc(-c2ccc(-c3cnc(N(C)[C@@H]4C[C@H]5CCC[C@@H](C4)N5)nn3)c3scnc23)cs1` [Compound 579]: the IC50 is 1000 to 10000 nM.

For `Cc1cc(-c2ccc(-c3cnc(N(C)[C@@H]4C[C@H]5CCC[C@@H](C4)N5)nn3)c3scnc23)sn1` [Compound 580], the half-maximal inhibitory concentration (IC50) is 100 to 1000 nM.

Consider `CC(C)(C)[C@H]1CN(c2ncc(-c3ccc(-n4cccn4)c4[nH]ncc34)nn2)CCN1` [Compound 581], for which the IC50 lay within 100 to 1000 nM.

Staying with this data set, now noted: Homo sapiens, gene panel, CJ qPCR, protocol of Example 142; read-out: MYB IC50 (decrease in CJ mRNA levels).
With `COc1nc(-c2ccc(N(C)[C@@H]3C[C@H]4CC[C@@H](C3)N4)nn2)ccc1-c1cn[nH]c1` [Compound 906], the IC50 lay in the range of 100 to 1000 nM.

Consider `CN(c1ccc(-c2ccc(-c3cn[nH]c3)cn2)nn1)[C@@H]1C[C@H]2CC[C@@H](C1)N2` [Compound 915], for which the IC50 is 100 to 1000 nM.

On to `COc1nc(-c2ccc(OC3CC(C)(C)NC(C)(C)C3)nn2)ccc1-c1cn[nH]c1` [Compound 917], for which the concentration for half-maximal inhibition (IC50) lay within 100 to 1000 nM.

For the compound `COc1nc(-c2ccc(OC3CC(C)(C)NC(C)(C)C3)nn2)ccc1-c1cnn(C)c1` [Compound 918], the IC50 fell in the range of 100 to 1000 nM.

As for `COc1nc(-c2ccc(N(C)C3CC(C)(C)NC(C)(C)C3)nn2)ccc1-c1cn[nH]c1` [Compound 919], the IC50 fell in the range of 100 to 1000 nM.

For `COc1nc(-c2ccc(N(C)C3CC(C)(C)NC(C)(C)C3)nn2)ccc1-c1cnn(C)c1` [Compound 920], the half-inhibitory concentration (IC50) fell in the range of 100 to 1000 nM.

`CN(c1ccc(-c2ccc(-c3cn[nH]c3)c(F)n2)nn1)[C@@H]1C[C@H]2CC[C@@H](C1)N2` [Compound 922]: the IC50 was 100 to 1000 nM.

Regarding `CN(c1ccc(-c2ccc(-c3cn[nH]c3)c(C#N)n2)nn1)[C@@H]1C[C@H]2CC[C@@H](C1)N2` [Compound 930], the IC50 is 100 to 1000 nM.

Consider `COc1nc(-c2ccc(N(C)[C@@H]3C[C@H]4CC[C@@H](C3)N4)nn2)cc(F)c1-c1cn[nH]c1` [Compound 931], for which the IC50 is < 100 nM.

In the case of `CN(c1ccc(-c2ccc(-c3cn[nH]c3)c(OC3CC3)n2)nn1)[C@@H]1C[C@H]2CC[C@@H](C1)N2` [Compound 939], the IC50 lay within 100 to 1000 nM.

Turning to `COc1cc(-c2ccc(-c3ccc(N(C)[C@@H]4C[C@H]5CC[C@@H](C4)N5)nn3)nc2OC)ncn1` [Compound 954], the IC50 fell in the range of 1000 to 10000 nM.

Regarding `CN(c1ccc(-c2ccc(-c3cn[nH]c3)c(OC(F)F)n2)nn1)[C@@H]1C[C@H]2CC[C@@H](C1)N2` [Compound 955], the IC50 was in the range of 100 to 1000 nM.

For the compound `COc1nc(-c2ccc(N3CCC(NC(C)(C)C)C3)nn2)ccc1-c1cn[nH]c1` (stereo not shown) [Compound 956], the IC50 lay within 100 to 1000 nM.

Turning to `COc1nc(-c2ccc(N(C)[C@@H]3C[C@H]4CC[C@@H](C3)N4)nn2)ccc1-c1ccnc(O)c1` [Compound 961], the IC50 was in the range of 100 to 1000 nM.

Turning to `COc1nc(-c2ccc(O[C@@H]3C[C@H]4CC[C@@H](C3)N4)nn2)ccc1-c1cnc(C)s1` [Compound 962], the concentration for half-maximal inhibition (IC50) lay within 100 to 1000 nM.

Consider `COc1nc(-c2ccc(OC3CC(C)(C)NC(C)(C)C3)nn2)cc(F)c1-c1cn[nH]c1` [Compound 965], for which the IC50 lay in the range of 100 to 1000 nM.

As for `CCOc1nc(-c2ccc(OC3CC(C)(C)NC(C)(C)C3)nn2)cc(F)c1-c1cn[nH]c1` [Compound 966], the half-inhibitory concentration (IC50) lay in the range of 100 to 1000 nM.

As to `CCOc1nc(-c2ccc(OC3CC(C)(C)NC(C)(C)C3)nn2)ccc1-c1cn[nH]c1` [Compound 967], the IC50 fell in the range of 100 to 1000 nM.

Consider `COc1nc(-c2ccc(OC3CC4CC(F)(F)C(C3)N4)nn2)cc(F)c1-c1cn[nH]c1` (stereo not shown) [Compound 969], for which the IC50 is > 10000 nM.

The same data set, now with this note: RT-qPCR panel, canonical junction mRNA; compound concentration having 50% response in CJ decrease; read-out: MYB IC50 (decrease in CJ mRNA levels).
Turning to `CN(c1ccc(-c2ccc(-c3cn[nH]c3)c3ncsc23)nn1)[C@H]1C[C@H]2COC[C@@H](C1)N2` [Compound 356, (endo)-N-methyl-N-{6-[4-(1H-pyrazol-4-yl)-1,3-benzothiazol-7-yl]pyridazin-3-yl}-3-oxa-9-azabicyclo[3.3.1]nonan-7-amine], the IC50 lay within 100 to 1000 nM.

Still in this data set, the particulars now being: decrease in CJ mRNA; A673 or K562 cells, 24 hours treatment, RT-qPCR; read-out: MYB CJ IC50.
As to `CN(c1ccc(-c2ccc(-c3cn[nH]c3)c3ncsc23)nn1)[C@H]1C[C@H]2COC[C@@H](C1)N2` [Compound 356, (endo)-N-methyl-N-{6-[4-(1H-pyrazol-4-yl)-1,3-benzothiazol-7-yl]pyridazin-3-yl}-3-oxa-9-azabicyclo[3.3.1]nonan-7-amine], the IC50 was in the range of 100 to 1000 nM.

The test system of a further data set is MDCK-BCRP or MDCKII-MDR1 cells. Description: Transwell assay for membrane efflux and permeability. It is filed as in vitro ADME, Canine. To be noted: test compound 1 μM, 2 hours at 37° C. The gist of the method: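 Transport measured over 2 h at 37 °C with compounds at 1 μM final in HBSS containing 0.5% DMSO. Monolayers of BCRP-expressing MDCK or MDR1-expressing MDCKII cells were cultured 4-8 days, then HBSS-washed and equilibrated 30 min at 37 °C before dosing.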
In the case of `Fc1cc(-c2ccc(OC3CC4CC(F)(F)C(C3)N4)nn2)c2[nH]ncc2c1-c1cn[nH]c1` (stereo not shown) [Compound 313, 7-[6-({6,6-difluoro-8-azabicyclo[3.2.1]octan-3-yl}oxy)pyridazin-3-yl]-5-fluoro-4-(1H-pyrazol-4-yl)-1H-indazole], the “Permeability (Papp)” value was “C (C represents a Papp greater than 6×10^−6 cm S^−1)”.

Take `CN(c1ccc(-c2ccc(-c3cn[nH]c3)c3ncsc23)nn1)[C@H]1C[C@H]2COC[C@@H](C1)N2` [Compound 356, (endo)-N-methyl-N-{6-[4-(1H-pyrazol-4-yl)-1,3-benzothiazol-7-yl]pyridazin-3-yl}-3-oxa-9-azabicyclo[3.3.1]nonan-7-amine]: the “Efflux Ratio” value is listed as “C (C represents a ratio greater than 5)” and the “Permeability (Papp)” value is recorded as “A (A represents a Papp <2×10^−6 cm s^−1)”.

Usually IC50 stands for the midpoint of a concentration-inhibition curve. For orientation: AC50 means the midpoint of the concentration-response curve, whichever way the signal moves.

The record behind these values is patent US20240368163A1, “COMPOUNDS AND METHODS FOR MODULATING SPLICING” (REMIX THERAPEUTICS INC., priority 2021, published 2024).
